Test [1] has as its target Tyrosine-protein kinase BTK (Homo sapiens, UniProt Q06187). Description: Inhibition of human recombinant BTK.
Test [2] deals with Tyrosine-protein kinase JAK2 (Homo sapiens, UniProt O60674). Put plainly: Inhibition of JAK2 (unknown origin).

This passage reports IC50 results from ChEMBL document CHEMBL3621099, “Design and synthesis of carbazole carboxamides as promising inhibitors of Bruton's tyrosine kinase (BTK) and Janus kinase 2 (JAK2)” (Bioorg Med Chem Lett, 2015).

Chain of Tyrosine-protein kinase JAK2 (O60674 whole entry): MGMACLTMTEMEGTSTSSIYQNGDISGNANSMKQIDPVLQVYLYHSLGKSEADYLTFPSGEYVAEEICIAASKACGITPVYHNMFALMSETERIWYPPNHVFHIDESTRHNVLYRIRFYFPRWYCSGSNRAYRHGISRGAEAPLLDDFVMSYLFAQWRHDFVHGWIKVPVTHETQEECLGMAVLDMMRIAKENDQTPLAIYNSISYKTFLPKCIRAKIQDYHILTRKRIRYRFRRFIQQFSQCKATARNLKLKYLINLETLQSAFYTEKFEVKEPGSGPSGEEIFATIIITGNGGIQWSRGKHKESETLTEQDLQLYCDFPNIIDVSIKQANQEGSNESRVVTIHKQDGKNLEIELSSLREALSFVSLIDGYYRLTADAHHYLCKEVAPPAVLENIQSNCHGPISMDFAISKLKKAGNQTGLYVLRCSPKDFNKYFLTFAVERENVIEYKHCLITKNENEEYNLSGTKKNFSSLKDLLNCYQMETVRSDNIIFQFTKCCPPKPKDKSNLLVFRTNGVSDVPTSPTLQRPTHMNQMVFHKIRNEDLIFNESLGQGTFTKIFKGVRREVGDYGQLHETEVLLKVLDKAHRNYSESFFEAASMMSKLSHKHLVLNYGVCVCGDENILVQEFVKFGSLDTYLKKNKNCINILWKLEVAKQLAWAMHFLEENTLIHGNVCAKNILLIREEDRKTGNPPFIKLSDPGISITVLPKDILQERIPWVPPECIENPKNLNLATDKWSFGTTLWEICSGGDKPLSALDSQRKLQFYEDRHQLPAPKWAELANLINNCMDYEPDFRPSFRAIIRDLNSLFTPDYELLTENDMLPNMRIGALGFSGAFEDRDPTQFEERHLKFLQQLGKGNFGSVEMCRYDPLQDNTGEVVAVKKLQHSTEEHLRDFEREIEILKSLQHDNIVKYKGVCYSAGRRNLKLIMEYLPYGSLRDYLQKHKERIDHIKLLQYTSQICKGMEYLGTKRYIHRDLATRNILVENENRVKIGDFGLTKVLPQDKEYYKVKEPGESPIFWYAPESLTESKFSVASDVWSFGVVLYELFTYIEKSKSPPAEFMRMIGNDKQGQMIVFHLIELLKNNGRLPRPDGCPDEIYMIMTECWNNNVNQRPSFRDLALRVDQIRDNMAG
Chain of Tyrosine-protein kinase BTK (Q06187 whole entry): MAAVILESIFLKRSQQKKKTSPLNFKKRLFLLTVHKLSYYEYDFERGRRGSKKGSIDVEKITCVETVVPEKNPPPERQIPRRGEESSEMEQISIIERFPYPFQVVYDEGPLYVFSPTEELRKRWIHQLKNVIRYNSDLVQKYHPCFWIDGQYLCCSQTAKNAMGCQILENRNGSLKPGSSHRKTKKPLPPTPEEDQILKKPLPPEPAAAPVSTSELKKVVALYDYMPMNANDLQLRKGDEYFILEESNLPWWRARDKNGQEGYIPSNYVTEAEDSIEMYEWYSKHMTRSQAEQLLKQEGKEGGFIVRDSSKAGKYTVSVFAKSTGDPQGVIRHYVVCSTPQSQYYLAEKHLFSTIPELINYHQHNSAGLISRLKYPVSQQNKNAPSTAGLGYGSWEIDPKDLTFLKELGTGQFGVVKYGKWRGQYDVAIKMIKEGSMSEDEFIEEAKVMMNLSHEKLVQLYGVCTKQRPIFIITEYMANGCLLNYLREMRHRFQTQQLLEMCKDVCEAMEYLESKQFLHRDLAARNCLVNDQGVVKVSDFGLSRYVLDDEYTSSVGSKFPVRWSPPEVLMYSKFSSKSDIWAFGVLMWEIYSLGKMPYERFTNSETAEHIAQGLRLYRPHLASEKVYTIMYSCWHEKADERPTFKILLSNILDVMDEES

As for `Cc1c(N)cccc1-c1ccc(C(N)=O)c2[nH]c3cc(C(=O)N4CCN(C)CC4)ccc3c12`, the IC50 in test [1] came to 19 nM.
The same measure, in the same setting: the same measure for `Cc1c(NC(=O)c2ccc(C(C)(C)C)cc2)cccc1-c1ccc(C(N)=O)c2[nH]c3cc(C(=O)N4CCN(C)CC4)ccc3c12`: 12 nM.
Take `COc1cccc(-c2cc(C(N)=O)c3[nH]c4ccc(C(=O)N5CCOCC5)cc4c3c2)c1`: the IC50 in test [1] is 360 nM.
Turning to `COc1cccc(-c2ccc(C(N)=O)c3[nH]c4cc(C(=O)N5CCN(C)CC5)ccc4c23)c1`, in test [1], the IC50 came to 32 nM.
In the case of `CC(=O)Nc1cccc(-c2cc(C(N)=O)c3[nH]c4cc(C(=O)N5CCN(C)CC5)ccc4c3c2)c1`, the IC50 in test [1] amounted to 379 nM; in test [2], 27 nM.
On to `CN1CCN(C(=O)c2ccc3c(c2)[nH]c2c(C(N)=O)ccc(-c4ccc(Oc5ccccc5)cc4)c23)CC1`, for which, in test [1], the IC50 was determined as 127 nM.
For the compound `CNC(=O)c1cccc(-c2ccc(C(N)=O)c3[nH]c4cc(C(=O)N5CCN(C)CC5)ccc4c23)c1`, in test [1], the half-inhibitory concentration (IC50) amounted to 71 nM.
Turning to `CN1CCN(C(=O)c2ccc3c(c2)[nH]c2c(C(N)=O)ccc(-c4cccc(NC(=O)c5ccc(F)cc5)c4)c23)CC1`, the IC50 in test [1] came out at 39 nM.
In the case of `Cc1ccccc1-c1ccc(C(N)=O)c2[nH]c3cc(C(=O)N4CCN(C)CC4)ccc3c12`, the concentration for half-maximal inhibition (IC50) in test [1] was 24 nM.
For the compound `NC(=O)c1cc(-c2cccc(Cl)c2)cc2c1[nH]c1ccc(C(=O)N3CCOCC3)cc12`, the IC50 is 189 nM in test [1] and 1.7 nM in test [2].
Take `CN1CCN(C(=O)c2ccc3c(c2)[nH]c2c(C(N)=O)ccc(-c4cccc(Cl)c4)c23)CC1`: the IC50 in test [1] amounted to 38 nM.
For the compound `CC(=O)Nc1cccc(-c2ccc(C(N)=O)c3[nH]c4ccc(C(=O)N5CCN(C)CC5)cc4c23)c1`, in test [1], the IC50 worked out at 88 nM.
Turning to `CN1CCN(C(=O)c2ccc3c(c2)[nH]c2c(C(N)=O)ccc(-c4cccc(NC(=O)c5ccc(F)cc5)c4F)c23)CC1`, in test [1], the IC50 worked out at 9.4 nM.
Same read-out and setting: the same measure for `CN1CCN(C(=O)c2ccc3c(c2)[nH]c2c(C(N)=O)ccc(-c4ccc(C(C)(C)C)cc4)c23)CC1`: 103 nM; for `CC(=O)Nc1ccc(-c2ccc(C(N)=O)c3[nH]c4cc(C(=O)N5CCN(C)CC5)ccc4c23)cc1`: 15 nM; for `CN1CCN(C(=O)c2ccc3c(c2)[nH]c2c(C(N)=O)ccc(-c4cccc(F)c4F)c23)CC1`: 6.9 nM.
As to `COc1ccc(-c2ccc(C(N)=O)c3[nH]c4cc(C(=O)N5CCN(C)CC5)ccc4c23)cc1`, in test [1], the IC50 is 55 nM.
The same measure, in the same setting: the same measure for `NC(=O)c1cc(-c2ccc(Cl)c(Cl)c2)cc2c1[nH]c1ccc(C(=O)N3CCOCC3)cc12`: 461 nM; for `CN1CCN(C(=O)c2ccc3c(c2)[nH]c2c(C(N)=O)ccc(-c4c(F)cccc4F)c23)CC1`: 12 nM.
As to `Cc1c(NC(=O)c2ccc(N(C)C)cc2)cccc1-c1ccc(C(N)=O)c2[nH]c3cc(C(=O)N4CCN(C)CC4)ccc3c12`, the IC50 in test [1] amounted to 3.5 nM.
In the case of `CN1CCN(C(=O)c2ccc3c(c2)[nH]c2c(C(N)=O)ccc(-c4ccc(Cl)c(Cl)c4)c23)CC1`, in test [1], the IC50 was determined as 101 nM.
With `CN1CCN(C(=O)c2ccc3c(c2)[nH]c2c(C(N)=O)ccc(-c4ccc(F)cc4F)c23)CC1`, the IC50 in test [1] came out at 22 nM.
Turning to `CC(=O)Nc1ccc(-c2ccc(C(N)=O)c3[nH]c4ccc(C(=O)N5CCN(C)CC5)cc4c23)cc1`, in test [1], the 50% inhibitory concentration (IC50) turned out to be 39 nM.
For the compound `COc1cccc(-c2cc(C(N)=O)c3[nH]c4cc(C(=O)N5CCN(C)CC5)ccc4c3c2)c1`, the values for the IC50 in test [1] and in test [2] were 404 nM and 4.3 nM, respectively.
In the case of `CN1CCN(C(=O)c2ccc3c(c2)[nH]c2c(C(N)=O)ccc(-c4cccc(Cl)c4Cl)c23)CC1`, in test [1], the IC50 worked out at 13 nM.
Still for that read-out and setting: under `COc1ccccc1-c1ccc(C(N)=O)c2[nH]c3cc(C(=O)N4CCN(C)CC4)ccc3c12` stands 144 nM; under `CN1CCN(C(=O)c2ccc3c(c2)[nH]c2c(C(N)=O)ccc(-c4ccc(Cl)cc4)c23)CC1`, 59 nM.
On to `COc1cccc(-c2ccc(C(N)=O)c3[nH]c4ccc(C(=O)N5CCN(C)CC5)cc4c23)c1`, for which, in test [1], the IC50 stood at 28 nM.
As to `Cc1c(Cl)cccc1-c1ccc(C(N)=O)c2[nH]c3cc(C(=O)N4CCN(C)CC4)ccc3c12`, in test [1], the IC50 came out at 32 nM.
In the case of `CC(=O)Nc1cccc(-c2ccc(C(N)=O)c3[nH]c4cc(C(=O)N5CCN(C)CC5)ccc4c23)c1`, the IC50 in test [1] worked out at 30 nM.
As to `Cc1c(NC(=O)c2ccc(F)cc2)cccc1-c1ccc(C(N)=O)c2[nH]c3cc(C(=O)N4CCN(C)CC4)ccc3c12`, the half-inhibitory concentration (IC50) in test [1] was determined as 3.8 nM.
For `NC(=O)c1cc(-c2ccc(Cl)cc2)cc2c1[nH]c1ccc(C(=O)N3CCOCC3)cc12`, the IC50 is 308 nM in test [1] and 2.6 nM in test [2].
Take `Cc1c(NC(=O)c2ccccc2)cccc1-c1ccc(C(N)=O)c2[nH]c3cc(C(=O)N4CCN(C)CC4)ccc3c12`: the 50% inhibitory concentration (IC50) in test [1] was determined as 7.2 nM.
In the case of `COc1ccc(-c2cc(C(N)=O)c3[nH]c4ccc(C(=O)N5CCOCC5)cc4c3c2)cc1`, the IC50 in test [1] was 327 nM; in test [2], 2 nM.
Consider `CN1CCN(C(=O)c2ccc3[nH]c4c(C(N)=O)cc(-c5ccc(Cl)cc5)cc4c3c2)CC1`, for which the 50% inhibitory concentration (IC50) in test [1] came to 110 nM.
Take `CNC(=O)c1ccc(-c2ccc(C(N)=O)c3[nH]c4cc(C(=O)N5CCN(C)CC5)ccc4c23)cc1`: the concentration for half-maximal inhibition (IC50) in test [1] was 44 nM.
`COc1ccc(-c2cc(C(N)=O)c3[nH]c4cc(C(=O)N5CCN(C)CC5)ccc4c3c2)cc1`: the results for the IC50 in test [1] and in test [2] were 436 nM and 5.5 nM, respectively.
Turning to `CN1CCN(C(=O)c2ccc3c(c2)[nH]c2c(C(N)=O)cc(-c4ccc(Cl)c(Cl)c4)cc23)CC1`, the values for the IC50 in test [1] and in test [2] were 812 nM and 6.2 nM, respectively.
Consider `COc1ccc(-c2ccc(C(N)=O)c3[nH]c4ccc(C(=O)N5CCN(C)CC5)cc4c23)cc1`, for which the IC50 in test [1] turned out to be 29 nM.

A word on the IC50: it is the concentration that inhibits the measured activity by half.
